Columns and labels:
[1] = tested on: wild-type Arabidopsis thaliana; experiment: Herbicide (methyl viologen) spraying, non-transformed plants; assay type: in vivo; conditions: 10 to 30 μM methyl viologen sprayed on 21-day-old plants, correlating to concentration
Description: (§1) Treatments with the herbicide Paraquat were carried out by growing transgenic and wild-type 21-day-old plants under normal conditions and spraying them with methyl viologen at concentrations of 10, 20 or 30 μM.
(§2) In order to study the effect of Hahb-10 overexpression on the tolerance to herbicides, transgenic and wild-type 21-day-old Arabidopsis thaliana were grown under normal conditions and were sprayed with methyl viologen at concentrations of 10, 20 or 30 μM. Once sprayed, they were left at the same illumination and temperature conditions for 24 hours and, at that time, leaf impairment was easily observable. One week after MV treatment, chlorophyll content in the leaves from both genotypes was analyzed. Plants were allowed to recover for three days and the percentage of survivors, either wild-type or transgenic ones expressing the Hahb-10 gene, was recorded.

[2] = tested on: transgenic Arabidopsis thaliana expressing the Hahb-10 gene; experiment: Herbicide (methyl viologen) spraying, Hahb-10 transgenic plants; assay type: in vivo; conditions: 10 to 30 μM methyl viologen sprayed on 21-day-old plants; three independent transgenic lines; dose-dependent
Description: as §1, §2

[3] = tested on: Hahb-10 transcript levels; experiment: Northern blot of Hahb-10 transcript levels in treated sunflower seedlings; assay type: in vivo, Helianthus annuus
Description: 2A: Total RNA samples (20 μg each) extracted from 4-day-old seedlings subjected to different treatments as described later were hybridized with a ^32P-labeled Hahb-10 cDNA specific probe (A, upper panel). The same filter was hybridized with an rRNA probe as a control for RNA loading and transfer. Spots obtained with the specific probe were quantified in reference to their rRNA using Image Pro Plus software. […] Quantitation of the signals has been done taking as standard value the signal obtained in these seedlings because the signal obtained in control seedlings was almost not detectable by the software used for this purpose. 2B: Total RNA samples (20 μg each) extracted from 7-day-old seedlings grown in normal illumination conditions (lane 1), in the dark (lane 2), or under continuous illumination at 40 cm from the light source applied to 4-day-old seedlings germinated in the dark during 3 additional days (lane 3) were analyzed by electrophoresis, transferred onto nylon membranes and hybridized with a ^32P-labelled Hahb-10 cDNA specific probe (upper panel). The same filter was hybridized with an rRNA probe as a control for RNA loading and transfer (lower panel). […]

[4] = tested on: non-transformed (wild-type) Arabidopsis plants; experiment: Stem elongation after gibberellin spraying, non-transformed plants; assay type: in vivo, Arabidopsis thaliana
Description: (§3) Stem height was measured with a ruler in non transformed (1) or 35S-Hahb10 transgenic plants (2: line A; 3: line B and 4: line C). Grey bars represent three transgenic lines and white bars represent wild-type plants. Right series in each panel represent GA3 treated plants while left series represent their non-treated counterparts. […] Arabidopsis transgenic or wild-type plants were grown under normal illumination conditions for 15 days. After this, the plants were sprayed with 200 μM GA3. This treatment was repeated at day 25. Stem length was measured in 20- and 30-day-old plants with a ruler. […] In order to investigate the response of Hahb-10 overexpressing lines to this hormone, we treated plants with 200 μM gibberellins as described above.

[5] = tested on: 35S-Hahb10 transgenic Arabidopsis plants; experiment: Stem elongation after gibberellin spraying, Hahb-10 overexpressing plants; assay type: in vivo, Arabidopsis thaliana
Description: as §3

For `C[n+]1ccc(-c2cc[n+](C)cc2)cc1` [methyl viologen], the “effect of herbicide treatment on plants” value [1] was “dramatically affected” and the “effect of herbicide treatment on plants” value [2] was “resistant”.

`C=C1C[C@]23C[C@@]1(O)CC[C@H]2[C@@]12C=C[C@H](O)[C@@](C)(C(=O)O1)[C@H]2[C@@H]3C(=O)O` [gibberellins, gibberellic acid] was tested, and the “Hahb-10 transcript levels raised with respect to the heat-shock treatment” value ([3]; 100 μM gibberellic acids, Northern blot normalised to rRNA) was 5 fold, the “increase in stem elongation with respect to non-treated controls” value ([4]; 200 μM gibberellins sprayed, 5 days after the first treatment (20-day-old plants), non-transformed plants) was 3.7 fold and the “stem elongation induction on average” value ([4]; 200 μM gibberellins, after the second treatment (30-day-old plants), wild-type plants) was 1.5 fold. For the same compound, the “increase in stem length with respect to non-treated controls” value ([5]; 200 μM gibberellins sprayed, 5 days after the first treatment (20-day-old plants)) was 1.6 fold and the “stem elongation induction on average” value ([5]; 200 μM gibberellins, after the second treatment (30-day-old plants)) was 1.2 fold.

With `OC[C@H]1O[C@@](CO)(O[C@H]2O[C@H](CO)[C@@H](O)[C@H](O)[C@H]2O)[C@@H](O)[C@@H]1O` [sucrose] the “effect on Hahb-10 mRNA levels” value ([3]; sucrose 10% w/v, similar to slight enhancement by heat/cold shock, water stress, hypoxia) was “produced a similar effect”.

From patent publication US7674954B2, “DNA constructs that contain Helianthus annuus Hahb-10 gene coding sequence, method for generating plants with a shortened life cycle and a high tolerance to herbicidal compounds and transgenic plants with that sequence” (Universidad Nacional del Litoral, priority 2006, dated 2010)
